Earlier results, collected in US4535081A, “Antiallergic and antiulcer 1-oxo-1H-thiazolo[3,2-a]pyrimidine-2-carboxamides and intermediates therefor” (Pfizer Inc., priority 1983, dated 1985).
Entries after “also recorded” stand apart in the source; their conditions may differ. Like-named read-outs stand apart in the source and are kept apart here.

Legend:
allergic reactions = conditions: cited from earlier work
bronchi = conditions: Cox et al., Adv. in Drug Res., 5, 115 (1970); cited from earlier work
gastric acid secretion = conditions: literature; cited from earlier work
gastric ulcers = conditions: literature; cited from earlier work

In the case of O=C(O)c1cc(=O)c2c(OCC(O)COc3cccc4oc(C(=O)O)cc(=O)c34)cccc2o1 [Intal, 1,3-bis(2-carboxycromon-5-yloxy)-2-hydroxypropane], the “activity by the oral route” value (allergic reactions) is listed as “lacks efficacy by the oral route; also recorded: not active by the oral route”, the “activity by the oral route” value (allergic reactions; listed as disodium cromoglycate) is listed as “lack of oral efficacy” and the bronchodilator action (bronchi) is listed as “not a bronchodilator”.
For CN/C(=N/CCSCc1nc[nH]c1C)NC#N [cimetidine], the “effect on ulcers / gastric acid secretion” value (gastric acid secretion) is listed as “alleviates ulcers by reducing gastric acid secretion”.
For CC1(C)[C@@H](OC(=O)CCC(=O)O)CC[C@]2(C)[C@H]3C(=O)C=C4[C@@H]5C[C@@](C)(C(=O)O)CC[C@]5(C)CC[C@@]4(C)[C@]3(C)CC[C@@H]12 [carbenoxolone sodium], the “effect on gastric ulcers” value (gastric ulcers) is given as “prevent formation of and to accelerate healing of gastric ulcers in animals, including humans”.
